Assay [1] relates to Bone cells. The experiment in a line: Collagen secretion in bone cells. It counts as cell-based, rat. The conditions noted are these: for collagen secretion in the bone cells: 0.3, 1, 3, 10 μM, FIG. 8B; for increase of collagen content / collagen synthesis: 'at least' figure. Here is the method:
(§1) Rat primary osteoblast was isolated from the parietal bone of gestation day 18 embryos of Sprague-Dawley rats. After being slaughtered, the embryo rats were obtained from the uteruses of the rats, and calvarium was isolated from the embryo rats. Parietal bone was cut from the calvarium and digested by 0.1% collagenase for 20 minutes to release the bone cells from the bone tissue. The digestion step was repeated five times. The collected bone cells were cultured in α-MEM containing 1% penicillin-streptomycin and 10% FBS in a humidified atmosphere of 5 percent carbon dioxide. When cells were attached and confluence, they were sub-cultured, which was called “passage 2 (P2)”. The passage was for analogizing. 2 to 5 passage cells were used for the experiments.
Bone cells were treated with 0.3, 1, 3, and 10 μM of imperatorin and bergapten, respectively. After treatment, the cells were lysed in 6N HCl at 116° C. for 16 hrs, and dried in a vacuum. The resultant residue was dissolved in an equal volume of water, and then absorbance was measured at […]. The collagen secretion in the control group which was treated with 0.1% DMSO was defined as 100%. Referring to FIG. 8B, imperatorin and bergapten both increased the collagen secretion in the bone cells

Assay [2] deals with Bone cells. The experiment in a line: Mineralization in bone cells (Alizarin red-S). It counts as cell-based, rat. The note with it: for mineralization of bone cells: 0.3, 1, 3, 10 μM, 14 days, differentiation medium, FIGS. 8C-8D; for increase of mineralization: 'at least' figure. Here is the method: as §1
Bone cells were cultured in 96-well Plate containing a differentiation medium (50 μg/ml vitamin C and 10 mM β-glycerophosphate) and treated with 0.3, 1, 3, and 10 μM of imperatorin and bergapten, respectively. The differentiation medium was refreshed every 3 days. 14 days after the cell culture, the bone cells were fixed with 75% ethanol for 30 minutes, and then treated with 40 mM Alizarin red-S at room temperature for 1 hr. After the addition of Alizarin red-S, 10% cetylpyridinium chloride was added, and then absorbance was measured at […]. The mineralization level in the control group which was treated with 0.1% DMSO was defined as 100%. Referring to FIGS. 8C-8D, imperatorin and bergapten both increased the mineralization of bone cells.

The test system of assay [3] is BMP-2 gene. The assay is described as follows: BMP-2 gene expression (RT-PCR). It counts as cell-based, rat. The conditions noted are these: for BMP-2 mRNA level, dependence on concentration: 0.3, 1, 3, 10 μM, FIG. 9A; for BMP-2 mRNA level, dependence on treatment time: 1, 3, 6, 12 hrs, FIG. 9B. The procedure: as §1
Bone cells were cultured in 6-well Plate and cultured with 0.3, 1, 3, and 10 μM of imperatorin and bergapten for 1, 3, 6, and 12 hrs, respectively. After treatment, the cells were lysed with TRIzol reagent at room temperature for 5 minutes, and then collected in a centrifuge tube. 0.5 ml of chloroform was added to the centrifuge tube. After the addition of chloroform, the centrifuge tube was well mixed, and centrifuged at 14000×g for 15 minutes at room temperature to obtain a supernatant. The supernatant was mixed with isopropanol (0.25 ml) and then centrifuged at 14000×g at room temperature for 15 minutes to obtain a precipitated RNA. RNA was washed with 75% alcohol, centrifuged at 14000×g for 10 minutes, and dried to give a RNA pellet. The RNA pellet was dissolved in diethyl pyrocarbonate (DEPC) solution and then quantitated by measurement of OD260/280. BMP-2 gene expression (BMP-2 mRNA level) was detected by RT-PCR using Supperscript™ III reverstranscriptase and […] (Applied Biosystems). The BMP-2 mRNA level in the control group which was treated with 0.1% DMSO was defined as 100%.

Assay [4] deals with EPK protein. The experiment in a line: Phosphorylation of EPK protein (western blot). In kind it is cell-based, rat. The note with it: 10 μM, 1, 3, 6, 12, 24 hrs; FIG. 10. Here is the method: as §1
Bone cells was cultured in 6-well plate and treated with 10 μM of imperatorin and bergapten for 1, 3, 6, 12, and 24 hrs, respectively. […] Following incubation with the secondary antibody, the membrane was washed three times with PBST, and detected by an […] chemiluminescence using an ECL blotting substrate according to the manufacturer's instructions. […]
A general note: A western blot detects proteins with antibodies after separation by electrophoresis.

Assay [5] relates to Male Sprague-Dawley rats. The assay is described as follows: Animal experiment: local administration into the tibia. In kind it is in vivo, rat. The note with it: for bone volume of tibia metaphysis / BMC / BMD / BV/TV (bone volume/tissue volume): 30 μM every day for a week through needle into tibia; for bone volume of tibia metaphysis: FIG. 12; for increase of bone mineral content / increase of bone mineral density: 'at least' figure, matches Table 3 vs control; for BMC / BMD / BV/TV (bone volume/tissue volume): tibia. Here is the method:
Male Sprague-Dawley rats (weighing 78 to 90 grams, at three weeks of age) were anesthetized with […] of trichloroacetaldehyde monohydrate. […] needle was sterilized and injected into the tibia of the rats. One day after the injection, the rats were administered with normal saline as the control, 30 μM imperatorin, and 30 μM bergapten every day for a week through the needle, respectively. Then, the rats were slaughtered after the last administration, and the tibias were immediately isolated after slaughtering and subject to BMD, BMC, and histochemical examination. Referring to FIG. 12, the bone volume of tibia metaphysis was increased by imperatorin and bergapten.

SMILES strings stand for the structures.

For the molecule `COc1c2ccoc2cc2oc(=O)ccc12` [bergapten], in assay [1], the “collagen secretion in the bone cells” value is given as “increased” and the “increase of collagen content / collagen synthesis” value is recorded as “at least 100%”. Moreover, in assay [2], the “mineralization of bone cells” value is given as “increased” and the increase of mineralization is at least 105.0%. Also, in assay [3], the “BMP-2 mRNA level, dependence on concentration” value is “increased according to the increase of the concentration” and the “BMP-2 mRNA level, dependence on treatment time” value is “increased according to the increase of the treatment time”. Further, in assay [4], the “phosphorylation of EPK protein” value is “induced”. Moreover, in assay [5], the “bone volume of tibia metaphysis” value is listed as “increased”, the “increase of bone mineral content” value is at least 33.7%, the “increase of bone mineral density” value is given as “at least 12.2%” and the BMC is 0.111 ± 0.003 g. In assay [5], the BMD amounted to 0.101 ± 0.002 g/mL and the “BV/TV (bone volume/tissue volume)” value is 18.1 ± 0.4 %.
For the molecule `CC(C)=CCOc1c2occc2cc2ccc(=O)oc12` [imperatorin], in assay [1], the “collagen secretion in the bone cells” value is on record as “increased” and the “increase of collagen content / collagen synthesis” value is “at least 102.0%”. Moreover, in assay [2], the “mineralization of bone cells” value is listed as “increased” and the increase of mineralization is at least 110.0%. In assay [3], the “BMP-2 mRNA level, dependence on concentration” value is on record as “increased according to the increase of the concentration” and the “BMP-2 mRNA level, dependence on treatment time” value is “increased according to the increase of the treatment time”. Also, the “phosphorylation of EPK protein” value in assay [4] was “induced”. Moreover, in assay [5], the “bone volume of tibia metaphysis” value is listed as “increased”, the “increase of bone mineral content” value was at least 28.91%, the “increase of bone mineral density” value is “at least 12.22%” and the BMC is on record as 0.107 ± 0.003 g. In addition, in assay [5], the BMD was 0.101 ± 0.002 g/mL and the “BV/TV (bone volume/tissue volume)” value was found to be 17.6 ± 0.6 %.

The values above are taken from patent US7914821B2, “Pharmaceutical composition for prevention and/or treatment of bone loss” (KO DA Pharmaceuticals Co., Ltd., priority 2008, dated 2011).
